Experimental data reported in ChEMBL document CHEMBL5120969, “Identification of Monosaccharide Derivatives as Potent, Selective, and Orally Bioavailable Inhibitors of Human and Mouse Galectin-3” (J Med Chem, 2022).

Tests used:
[1] = Permeability of the compound at pH 7.4 measured for 4 hrs by UV plate reader based PAMPA assay; type: ADME; settings: read-out: permeability
[2] = AUC (0 to 24 hrs) in C57BL6 mouse at 10 mg/kg, po measured upto 24 hrs by LC-MS/MS analysis; type: ADME, organism-based; parameters: dose 10 mg/kg, time < 24 hrs, route po; settings: in vivo
[3] = Cmax in C57BL6 mouse at 10 mg/kg, po measured upto 24 hrs by LC-MS/MS analysis; type: ADME, organism-based; parameters: time < 24 hrs, dose 10 mg/kg, route po; settings: in vivo
[4] = Permeability of the compound at pH 5.5 measured for 4 hrs by UV plate reader based PAMPA assay; type: ADME; settings: read-out: permeability
[5] = Oral bioavailability in C57BL6 mouse at 10 mg/kg measured upto 24 hrs by LC-MS/MS analysis; type: ADME, organism-based; settings: in vivo
[6] = Clearance in C57BL6 mouse at 2 mg/kg, iv measured upto 24 hrs by LC-MS/MS analysis; type: ADME, organism-based; settings: in vivo
[7] = Volume of distribution at steady state in C57BL6 mouse at 2 mg/kg, iv measured upto 24 hrs by LC-MS/MS analysis; type: ADME, organism-based; settings: in vivo, read-out: Vdss
[8] = Metabolic stability of the compound in mouse liver microsomes assessed as CYP450-mediated metabolism by measuring parent compound remaining at 0.5 uM measured after 10 mins in presence of NADPH by LC-MS/MS analysis; type: ADME, Microsome; settings: read-out: Stability
[9] = Metabolic stability of the compound in rat liver microsomes assessed as CYP450-mediated metabolism by measuring parent compound remaining at 0.5 uM measured after 10 mins in presence of NADPH by LC-MS/MS analysis; type: ADME, Microsome; settings: read-out: Stability

Row | Compound | Papp at 4 h [1] [×10⁻⁶ cm/s] | Papp at 4 h [4] [×10⁻⁶ cm/s] | further results
1 | OC[C@H]1O[C@@H](n2nncc2-c2ccc(Cl)c(Cl)c2)[C@H](O)[C@@H](n2cc(-c3cc(F)c(F)c(F)c3)nn2)[C@H]1O | 7 |  | 
2 | Cc1nc([C@@H]2O[C@H](CO)[C@H](O)[C@H](n3cc(-c4ccc(Cl)c(F)c4F)nn3)[C@H]2O)n(-c2cc(Cl)ccc2C(F)(F)F)n1 |  |  | AUC(0-t) at 24 h [2]: 37 µM·h; Cmax [3]: 3.6 µM
3 | Cc1nc([C@@H]2O[C@H](CO)[C@H](O)[C@H](n3cc(-c4cc(F)c(F)c(F)c4)nn3)[C@H]2O)n(-c2cc(Cl)cc(Cl)c2)n1 | 12.5 | 10.8 | 
4 | OC[C@H]1O[C@@H](c2nncn2-c2cccc(Cl)c2)[C@H](O)[C@@H](n2cc(-c3cc(F)c(F)c(F)c3)nn2)[C@H]1O | 0.6 |  | 
5 | Cc1nc([C@@H]2O[C@H](CO)[C@H](O)[C@H](n3cc(-c4cc(F)c(F)c(F)c4)nn3)[C@H]2O)n(-c2cccc(Cl)c2Cl)n1 | 45.2 | 42.3 | 
6 | OC[C@H]1O[C@@H](c2ncnn2-c2cccc(Cl)c2)[C@H](O)[C@@H](n2cc(-c3cc(F)c(F)c(F)c3)nn2)[C@H]1O | 20.3 |  | 
7 | Cc1nc([C@@H]2O[C@H](CO)[C@H](O)[C@H](n3cc(-c4cc(F)c(F)c(F)c4)nn3)[C@H]2O)n(-c2cc(Cl)ccc2C(F)(F)F)n1 | 36.9 | 51.1 | 
8 | Cc1nc([C@@H]2O[C@H](CO)[C@H](O)[C@H](n3cc(-c4cc(F)c(F)c(F)c4)nn3)[C@H]2O)n(-c2cccc(Cl)c2)n1 | 34.5 | 36.3 | 
9 | COc1ccc(Cl)cc1-n1nc(C)nc1[C@@H]1O[C@H](CO)[C@H](O)[C@H](n2cc(-c3cc(F)c(F)c(F)c3)nn2)[C@H]1O | 14 | 15.7 | 
10 | Cc1nc([C@@H]2O[C@H](CO)[C@H](O)[C@H](n3cc(-c4cc(F)c(F)c(F)c4)nn3)[C@H]2O)n(-c2cc(Cl)ccc2Cl)n1 | 30.4 | 24.7 | 
11 | Cc1nc([C@@H]2O[C@H](CO)[C@H](O)[C@H](n3cc(-c4cc(F)c(F)c(F)c4)nn3)[C@H]2O)n(-c2cc(Cl)ccc2Br)n1 | 14.8 | 14.5 | 
12 | Cc1nc([C@@H]2O[C@H](CO)[C@H](O)[C@H](n3cc(-c4cc(F)c(F)c(F)c4)nn3)[C@H]2O)n(-c2cc(Cl)ccc2F)n1 | 12.5 | 12.7 | 
13 | Cc1nc([C@@H]2O[C@H](CO)[C@H](O)[C@H](n3cc(-c4cc(F)c(F)c(F)c4)nn3)[C@H]2O)n(-c2cc(Cl)ccc2C)n1 | 18.1 | 15 | 
14 | Cc1nc([C@@H]2O[C@H](CO)[C@H](O)[C@H](n3cc(-c4ccc(Br)c(F)c4F)nn3)[C@H]2O)n(-c2cc(Cl)ccc2C(F)(F)F)n1 |  |  | bioavailability [5]: 40%; AUC(0-t) at 24 h [2]: 40 µM·h; clearance [6]: 2.7 mL/min/kg; Vd [7]: 2.4 L/kg; Cmax [3]: 5 µM
15 | OC[C@H]1O[C@@H](n2nncc2-c2cccc(Cl)c2)[C@H](O)[C@@H](n2cc(-c3cc(F)c(F)c(F)c3)nn2)[C@H]1O | 3.3 | 3.1 | 
16 | Cc1nc([C@@H]2O[C@H](CO)[C@H](O)[C@H](n3cc(-c4cc(F)c(F)c(F)c4)nn3)[C@H]2O)n(-c2ccc(Cl)c(Cl)c2)n1 | 45.6 | 44.4 | 
17 | Cc1nc([C@@H]2O[C@H](CO)[C@H](O)[C@H](n3cc(-c4cc(F)c(Cl)c(F)c4)nn3)[C@H]2O)n(-c2cc(Cl)ccc2C(F)(F)F)n1 |  |  | bioavailability [5]: 100%; AUC(0-t) at 24 h [2]: 40 µM·h; clearance [6]: 7 mL/min/kg; Vd [7]: 1.7 L/kg; remaining at 10 min, 0.5 µM [8]: 85%; remaining at 10 min, 0.5 µM [9]: 91%; Cmax [3]: 5 µM
